# From ChEMBL document CHEMBL1909046, “DrugMatrix in vitro pharmacology data”
# pIC50, pKi: −log10 of the molar value.
# Columns and labels:
# [1] = DRUGMATRIX: Sigma2 radioligand binding (ligand: [3H] Ifenprodil); format: cell membranes, Rattus norvegicus, Wistar, Brain, Membrane; settings: Not Active = under 50% inhibition at 10 µM
# [2] = DRUGMATRIX: Sodium/nucleoside co-transporter radioligand binding (ligand: nitrobenzylthioinosine); format: cell membranes, Cavia porcellus, Dunkin-Hartley, Cerebral cortex, Membrane; settings: Not Active = under 50% inhibition at 10 µM
# Calcitonin receptor = molecular target: T1, Calcitonin receptor (Homo sapiens, UniProt P30988); format: cell membranes, Membrane; settings: t47d; note: in other assays of this panel Not Active means under 50% inhibition at 10 µM
# T1 sequence (P30988 whole entry): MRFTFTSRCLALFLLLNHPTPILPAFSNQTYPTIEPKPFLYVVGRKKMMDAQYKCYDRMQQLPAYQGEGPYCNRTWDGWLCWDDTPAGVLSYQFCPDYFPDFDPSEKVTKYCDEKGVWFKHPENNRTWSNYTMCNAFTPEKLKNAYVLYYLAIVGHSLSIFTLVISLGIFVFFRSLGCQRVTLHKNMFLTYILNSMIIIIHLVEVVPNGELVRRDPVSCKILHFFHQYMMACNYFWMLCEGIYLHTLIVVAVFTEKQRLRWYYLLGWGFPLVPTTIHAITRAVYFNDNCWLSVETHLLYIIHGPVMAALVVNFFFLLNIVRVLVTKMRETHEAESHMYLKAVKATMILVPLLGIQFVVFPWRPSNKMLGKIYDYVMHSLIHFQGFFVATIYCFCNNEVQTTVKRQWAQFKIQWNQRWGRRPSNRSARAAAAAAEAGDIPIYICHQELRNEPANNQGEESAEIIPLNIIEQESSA
# D(3) dopamine receptor = D(3) dopamine receptor (Homo sapiens, UniProt P35462); test: DRUGMATRIX: Dopamine D3 radioligand binding (ligand: [3H] Spiperone); format: cell membranes, CHO, Membrane; settings: cho
# Cannabinoid receptor 1 = Cannabinoid receptor 1 (Homo sapiens, UniProt P21554); format: cell membranes, Membrane; settings: chem-1; note: in other assays of this panel Not Active means under 50% inhibition at 10 µM
# [3] = molecular target: Epidermal growth factor receptor (Homo sapiens, UniProt P00533); test: DRUGMATRIX: Protein Tyrosine Kinase, EGF Receptor enzyme inhibition (substrate: Poly(Glu:Tyr)); format: cell-based, Insect cells; settings: insect cells; Not Active = under 50% inhibition at 10 µM
# [4] = DRUGMATRIX: Tumor Necrosis Factor (TNF), Non-Selective radioligand binding (ligand: [125I] TNF-alpha); format: cell membranes, Membrane; settings: u-937; Not Active = under 50% inhibition at 10 µM
# Adenosine receptor A2a = Adenosine receptor A2a (Homo sapiens, UniProt P29274); test: DRUGMATRIX: Adenosine A2A radioligand binding (ligand: […]); format: cell membranes, HEK293, Membrane; settings: hek293; Not Active = under 50% inhibition at 10 µM
# [5] = molecular target: Aldo-keto reductase family 1 member B1 (Rattus norvegicus, UniProt P07943); format: tissue-based, Lens of camera-type eye;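 note: inhibition of aldose reductase enzyme activity, measured with DL-glyceraldehyde as the substrate; in other assays of this panel Not Active means under 50% inhibition at 10 µM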
# [6] = molecular target: T2, Cholecystokinin receptor type A (Homo sapiens, UniProt P32238); format: cell membranes, Membrane; settings: 1321-n1; note: in other assays of this panel Not Active means under 50% inhibition at 10 µM
# T2 sequence (P32238 whole entry): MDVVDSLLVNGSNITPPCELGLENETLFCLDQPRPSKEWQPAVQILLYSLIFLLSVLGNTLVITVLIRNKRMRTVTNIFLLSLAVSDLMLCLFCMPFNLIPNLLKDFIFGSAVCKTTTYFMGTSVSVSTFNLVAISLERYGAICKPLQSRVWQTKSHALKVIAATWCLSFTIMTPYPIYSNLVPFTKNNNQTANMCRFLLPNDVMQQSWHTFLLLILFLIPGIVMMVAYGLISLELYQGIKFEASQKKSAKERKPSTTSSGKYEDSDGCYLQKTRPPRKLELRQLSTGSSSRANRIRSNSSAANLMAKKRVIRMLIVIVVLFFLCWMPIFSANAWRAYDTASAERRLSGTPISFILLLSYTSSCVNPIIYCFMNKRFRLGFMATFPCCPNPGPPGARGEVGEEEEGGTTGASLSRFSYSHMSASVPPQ
# Thromboxane-A synthase = molecular target: T3, Thromboxane-A synthase (Homo sapiens, UniProt P24557); test: biochemical; format: tissue-based, Platelet; settings: platelet
# T3 sequence (P24557 whole entry): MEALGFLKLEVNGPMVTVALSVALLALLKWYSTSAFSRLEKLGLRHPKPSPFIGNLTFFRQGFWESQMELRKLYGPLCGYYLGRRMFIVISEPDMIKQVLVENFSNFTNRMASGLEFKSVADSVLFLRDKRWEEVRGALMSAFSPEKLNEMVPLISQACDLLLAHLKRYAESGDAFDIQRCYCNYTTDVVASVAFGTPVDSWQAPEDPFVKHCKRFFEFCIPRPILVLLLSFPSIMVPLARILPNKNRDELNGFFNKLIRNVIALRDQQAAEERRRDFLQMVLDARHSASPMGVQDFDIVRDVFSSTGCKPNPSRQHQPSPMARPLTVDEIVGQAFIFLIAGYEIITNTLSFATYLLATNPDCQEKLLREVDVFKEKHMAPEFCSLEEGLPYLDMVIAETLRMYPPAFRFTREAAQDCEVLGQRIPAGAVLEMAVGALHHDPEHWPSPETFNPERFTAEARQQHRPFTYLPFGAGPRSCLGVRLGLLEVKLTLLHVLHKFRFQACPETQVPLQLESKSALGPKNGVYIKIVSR
# Cytochrome P450 2E1 = Cytochrome P450 2E1 (Homo sapiens, UniProt P05181); settings: bti-tn-5b1-4; note: in other assays of this panel Not Active means under 50% inhibition at 10 µM
# [7] = molecular target: T4, Amine oxidase [flavin-containing] A (Homo sapiens, UniProt P21397); test: DRUGMATRIX: Monoamine Oxidase MAO-A enzyme inhibition (substrate: Kynuramine); set-up: species or system BTI-TN-5B1-4; settings: bti-tn-5b1-4; Not Active = under 50% inhibition at 10 µM
# T4 sequence (P21397 whole entry): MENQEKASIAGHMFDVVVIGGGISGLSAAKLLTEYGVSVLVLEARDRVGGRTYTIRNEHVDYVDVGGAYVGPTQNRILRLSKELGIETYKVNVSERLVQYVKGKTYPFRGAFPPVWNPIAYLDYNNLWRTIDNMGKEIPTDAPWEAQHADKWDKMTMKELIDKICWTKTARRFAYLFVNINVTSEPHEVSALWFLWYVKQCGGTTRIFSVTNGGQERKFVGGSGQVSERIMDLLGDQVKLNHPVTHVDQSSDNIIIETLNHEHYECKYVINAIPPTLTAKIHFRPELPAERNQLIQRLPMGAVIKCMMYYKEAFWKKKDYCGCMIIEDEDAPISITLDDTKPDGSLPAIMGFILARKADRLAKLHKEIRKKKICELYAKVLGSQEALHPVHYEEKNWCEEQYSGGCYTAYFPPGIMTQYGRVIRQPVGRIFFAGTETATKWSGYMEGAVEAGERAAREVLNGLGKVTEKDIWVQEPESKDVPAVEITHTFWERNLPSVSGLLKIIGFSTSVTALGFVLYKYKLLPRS
# [8] = molecular target: 5-hydroxytryptamine receptor 6 (Homo sapiens, UniProt P50406); format: cell membranes, HeLa, Membrane; settings: hela; note: in other assays of this panel Not Active means under 50% inhibition at 10 µM
# Insulin receptor = Insulin receptor (Rattus norvegicus, UniProt P15127); format: cell membranes, Wistar, Liver, Membrane; note: in other assays of this panel Not Active means under 50% inhibition at 10 µM
# Sequence of Insulin receptor (P15127 27-759 limits assumed): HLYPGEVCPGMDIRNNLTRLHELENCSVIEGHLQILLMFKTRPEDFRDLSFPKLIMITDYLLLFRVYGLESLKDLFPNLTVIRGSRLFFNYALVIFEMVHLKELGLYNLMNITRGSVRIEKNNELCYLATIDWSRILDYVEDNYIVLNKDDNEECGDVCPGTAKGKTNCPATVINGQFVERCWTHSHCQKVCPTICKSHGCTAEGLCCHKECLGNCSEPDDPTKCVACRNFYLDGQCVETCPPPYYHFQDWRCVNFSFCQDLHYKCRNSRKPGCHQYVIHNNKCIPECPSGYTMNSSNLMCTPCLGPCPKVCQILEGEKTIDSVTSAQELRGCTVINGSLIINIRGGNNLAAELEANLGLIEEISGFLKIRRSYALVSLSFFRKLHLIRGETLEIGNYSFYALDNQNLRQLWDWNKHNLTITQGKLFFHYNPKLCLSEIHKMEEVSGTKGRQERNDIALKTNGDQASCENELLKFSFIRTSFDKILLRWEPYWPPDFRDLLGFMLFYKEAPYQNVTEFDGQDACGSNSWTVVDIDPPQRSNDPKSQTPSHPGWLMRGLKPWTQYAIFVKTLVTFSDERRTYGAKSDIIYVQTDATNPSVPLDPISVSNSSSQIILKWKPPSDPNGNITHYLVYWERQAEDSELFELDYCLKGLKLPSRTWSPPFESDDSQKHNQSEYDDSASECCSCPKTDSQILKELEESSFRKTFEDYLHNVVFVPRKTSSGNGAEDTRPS
# Sequence of Insulin receptor (P15127 764-1383 limits assumed): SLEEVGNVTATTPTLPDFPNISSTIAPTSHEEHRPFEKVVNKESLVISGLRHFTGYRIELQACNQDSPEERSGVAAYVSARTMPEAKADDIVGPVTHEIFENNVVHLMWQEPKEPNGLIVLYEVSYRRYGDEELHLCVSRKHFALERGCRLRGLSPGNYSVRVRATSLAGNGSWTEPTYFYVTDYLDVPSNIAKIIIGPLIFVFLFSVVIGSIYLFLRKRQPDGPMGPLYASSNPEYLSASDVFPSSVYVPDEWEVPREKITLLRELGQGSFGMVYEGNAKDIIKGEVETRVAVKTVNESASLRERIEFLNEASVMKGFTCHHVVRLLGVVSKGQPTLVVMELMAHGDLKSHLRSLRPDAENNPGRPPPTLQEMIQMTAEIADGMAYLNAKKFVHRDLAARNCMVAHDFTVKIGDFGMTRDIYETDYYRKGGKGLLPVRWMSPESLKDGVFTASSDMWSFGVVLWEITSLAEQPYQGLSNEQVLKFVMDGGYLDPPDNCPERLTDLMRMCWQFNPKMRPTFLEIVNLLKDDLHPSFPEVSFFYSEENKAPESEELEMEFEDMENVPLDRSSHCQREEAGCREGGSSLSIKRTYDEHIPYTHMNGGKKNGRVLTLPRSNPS
# Sequence of D(3) dopamine receptor (P35462 whole entry): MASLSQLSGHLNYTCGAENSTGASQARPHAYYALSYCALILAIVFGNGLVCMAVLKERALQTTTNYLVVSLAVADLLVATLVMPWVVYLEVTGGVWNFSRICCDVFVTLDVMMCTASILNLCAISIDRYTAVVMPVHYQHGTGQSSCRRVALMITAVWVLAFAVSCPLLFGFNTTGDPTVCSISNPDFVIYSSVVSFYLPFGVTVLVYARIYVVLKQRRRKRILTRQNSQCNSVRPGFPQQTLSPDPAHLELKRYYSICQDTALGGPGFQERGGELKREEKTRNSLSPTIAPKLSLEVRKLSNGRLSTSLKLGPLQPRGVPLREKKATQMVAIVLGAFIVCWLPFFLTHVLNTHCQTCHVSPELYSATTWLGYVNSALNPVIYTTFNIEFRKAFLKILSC
# Sequence of Cannabinoid receptor 1 (P21554 whole entry): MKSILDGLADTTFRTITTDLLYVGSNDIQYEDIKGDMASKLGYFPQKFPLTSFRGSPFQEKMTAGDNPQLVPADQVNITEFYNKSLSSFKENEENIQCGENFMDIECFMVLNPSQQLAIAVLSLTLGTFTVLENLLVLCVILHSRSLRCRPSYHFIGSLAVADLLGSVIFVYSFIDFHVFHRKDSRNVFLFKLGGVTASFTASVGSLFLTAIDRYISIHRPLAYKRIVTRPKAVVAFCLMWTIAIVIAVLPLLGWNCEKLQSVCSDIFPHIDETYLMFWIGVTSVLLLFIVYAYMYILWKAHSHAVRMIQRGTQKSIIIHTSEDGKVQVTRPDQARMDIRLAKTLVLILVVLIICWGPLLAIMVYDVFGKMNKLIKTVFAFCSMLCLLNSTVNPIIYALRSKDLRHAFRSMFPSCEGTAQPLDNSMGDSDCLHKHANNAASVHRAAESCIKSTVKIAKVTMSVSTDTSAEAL
# Sequence of 5-hydroxytryptamine receptor 6 (P50406 whole entry): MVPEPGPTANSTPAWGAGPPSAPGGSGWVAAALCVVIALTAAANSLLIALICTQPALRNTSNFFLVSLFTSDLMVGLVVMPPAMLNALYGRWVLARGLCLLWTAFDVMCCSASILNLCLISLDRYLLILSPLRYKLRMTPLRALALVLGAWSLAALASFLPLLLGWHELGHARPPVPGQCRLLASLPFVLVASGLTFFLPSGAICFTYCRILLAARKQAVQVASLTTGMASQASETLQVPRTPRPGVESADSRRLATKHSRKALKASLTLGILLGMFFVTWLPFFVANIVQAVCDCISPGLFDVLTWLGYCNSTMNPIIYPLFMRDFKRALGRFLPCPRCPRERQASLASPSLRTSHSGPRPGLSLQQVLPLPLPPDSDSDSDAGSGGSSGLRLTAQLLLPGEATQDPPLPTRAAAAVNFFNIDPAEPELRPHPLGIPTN
# Sequence of Cytochrome P450 2E1 (P05181 whole entry): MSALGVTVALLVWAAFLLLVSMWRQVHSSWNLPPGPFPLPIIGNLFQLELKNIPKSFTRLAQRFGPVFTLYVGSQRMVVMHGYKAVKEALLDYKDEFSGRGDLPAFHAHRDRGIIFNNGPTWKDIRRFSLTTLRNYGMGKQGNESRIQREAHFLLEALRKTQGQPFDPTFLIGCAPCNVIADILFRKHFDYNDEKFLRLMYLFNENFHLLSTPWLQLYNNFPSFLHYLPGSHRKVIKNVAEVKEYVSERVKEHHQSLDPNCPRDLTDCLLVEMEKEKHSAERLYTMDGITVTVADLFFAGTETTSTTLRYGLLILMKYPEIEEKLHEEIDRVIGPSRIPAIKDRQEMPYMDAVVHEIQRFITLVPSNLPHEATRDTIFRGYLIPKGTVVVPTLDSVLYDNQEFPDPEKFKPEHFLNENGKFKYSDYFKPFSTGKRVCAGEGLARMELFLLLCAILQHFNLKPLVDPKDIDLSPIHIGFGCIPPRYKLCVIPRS
# Sequence of Epidermal growth factor receptor (P00533 whole entry): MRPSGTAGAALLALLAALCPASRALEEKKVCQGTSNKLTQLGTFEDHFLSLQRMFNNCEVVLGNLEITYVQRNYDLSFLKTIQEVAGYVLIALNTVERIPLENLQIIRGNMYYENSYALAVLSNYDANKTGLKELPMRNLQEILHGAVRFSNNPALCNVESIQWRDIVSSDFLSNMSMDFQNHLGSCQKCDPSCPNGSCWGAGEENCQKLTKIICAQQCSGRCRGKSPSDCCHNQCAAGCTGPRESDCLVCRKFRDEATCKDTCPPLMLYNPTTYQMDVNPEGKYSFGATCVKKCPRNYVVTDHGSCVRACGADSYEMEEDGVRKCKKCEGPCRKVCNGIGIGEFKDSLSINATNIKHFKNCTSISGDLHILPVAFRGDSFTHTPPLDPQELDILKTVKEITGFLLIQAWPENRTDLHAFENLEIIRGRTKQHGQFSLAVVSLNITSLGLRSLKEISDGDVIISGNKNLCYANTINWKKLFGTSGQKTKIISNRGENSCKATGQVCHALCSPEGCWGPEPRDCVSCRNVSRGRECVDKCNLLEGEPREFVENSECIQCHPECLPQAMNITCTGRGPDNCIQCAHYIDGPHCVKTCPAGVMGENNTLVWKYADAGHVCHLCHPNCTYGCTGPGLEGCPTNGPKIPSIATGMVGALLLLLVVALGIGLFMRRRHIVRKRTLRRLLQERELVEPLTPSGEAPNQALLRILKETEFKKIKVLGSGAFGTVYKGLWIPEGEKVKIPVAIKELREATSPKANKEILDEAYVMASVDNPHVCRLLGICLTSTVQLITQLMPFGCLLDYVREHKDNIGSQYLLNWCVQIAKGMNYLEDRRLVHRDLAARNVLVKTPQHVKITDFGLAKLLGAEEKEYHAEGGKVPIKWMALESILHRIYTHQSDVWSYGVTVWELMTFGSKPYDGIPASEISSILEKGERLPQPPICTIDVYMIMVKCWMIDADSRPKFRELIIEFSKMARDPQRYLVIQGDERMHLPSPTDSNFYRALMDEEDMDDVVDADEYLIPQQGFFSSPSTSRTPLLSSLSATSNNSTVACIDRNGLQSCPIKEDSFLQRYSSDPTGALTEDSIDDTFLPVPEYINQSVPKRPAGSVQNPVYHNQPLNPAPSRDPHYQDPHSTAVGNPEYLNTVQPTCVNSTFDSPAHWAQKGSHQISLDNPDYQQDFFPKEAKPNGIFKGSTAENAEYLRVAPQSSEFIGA
# Sequence of Adenosine receptor A2a (P29274 whole entry): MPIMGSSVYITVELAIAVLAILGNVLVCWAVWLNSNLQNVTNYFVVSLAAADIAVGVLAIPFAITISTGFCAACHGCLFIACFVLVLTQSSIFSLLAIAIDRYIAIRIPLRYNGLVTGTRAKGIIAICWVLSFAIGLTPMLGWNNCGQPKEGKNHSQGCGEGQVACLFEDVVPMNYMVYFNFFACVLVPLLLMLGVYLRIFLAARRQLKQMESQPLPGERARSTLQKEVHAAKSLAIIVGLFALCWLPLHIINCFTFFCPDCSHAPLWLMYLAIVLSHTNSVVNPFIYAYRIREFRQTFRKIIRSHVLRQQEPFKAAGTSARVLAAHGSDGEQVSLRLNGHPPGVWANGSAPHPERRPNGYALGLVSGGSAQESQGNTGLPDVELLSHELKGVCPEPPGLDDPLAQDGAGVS
SMILES,IC50 [1],Ki [1],IC50 [2],Ki [2],IC50 (Calcitonin receptor),IC50 (D(3) dopamine receptor),IC50 (Cannabinoid receptor 1),IC50 [3],IC50 [4],Ki [4],IC50 (Adenosine receptor A2a),IC50 [5],IC50 [6],IC50 (Thromboxane-A synthase),IC50 (Cytochrome P450 2E1),Ki (Cytochrome P450 2E1),IC50 [7],IC50 [8],IC50 (Insulin receptor),further results
CC1=C(/C=C/C(C)=C/C=C/C(C)=C\C(=O)O)C(C)(C)CCC1 [ISOTRETINOIN],Not Active,Not Active,Not Active,Not Active,Not Active,Not Active,Not Active,Not Active,Not Active,Not Active,Not Active,Not Active,Not Active,Not Active,Not Active,Not Active,Not Active,Not Active,Not Active,–
CO[C@@H]1[C@@H](O[C@@H]2O[C@H](C)[C@@H](O[C@H]3C[C@@](C)(O)[C@@H](OC(=O)CC(C)C)[C@H](C)O3)[C@H](N(C)C)[C@H]2O)[C@@H](CC=O)C[C@@H](C)[C@@H](O)/C=C/C=C/C[C@@H](C)OC(=O)C[C@H]1O [KITASAMYCIN],Not Active,Not Active,Not Active,Not Active,Not Active,Not Active,Not Active,Not Active,Not Active,Not Active,Not Active,Not Active,Not Active,Not Active,Not Active,Not Active,Not Active,Not Active,Not Active,–
CC(CCc1ccccc1)NCC(O)c1ccc(O)c(C(N)=O)c1 (stereo not drawn) [LABETALOL],–,–,Not Active,Not Active,Not Active,Not Active,Not Active,Not Active,Not Active,Not Active,Not Active,Not Active,Not Active,Not Active,Not Active,Not Active,Not Active,Not Active,Not Active,pIC50 ([1]; read-out: IC50): 5.55; pKi ([1]; read-out: Ki): 5.76
Nc1nnc(-c2cccc(Cl)c2Cl)c(N)n1 [LAMOTRIGINE],Not Active,Not Active,Not Active,Not Active,Not Active,Not Active,Not Active,Not Active,Not Active,Not Active,Not Active,Not Active,Not Active,Not Active,Not Active,Not Active,Not Active,Not Active,Not Active,–
CCC[C@@H]1C[C@@H](C(=O)N[C@@H]([C@H]2O[C@H](SC)[C@H](O)[C@@H](O)[C@H]2O)[C@@H](C)O)N(C)C1 [LINCOMYCIN],Not Active,Not Active,Not Active,Not Active,Not Active,Not Active,Not Active,Not Active,Not Active,Not Active,Not Active,Not Active,Not Active,Not Active,Not Active,Not Active,Not Active,Not Active,Not Active,–
NCCCC[C@H](N[C@@H](CCc1ccccc1)C(=O)O)C(=O)N1CCC[C@H]1C(=O)O [LISINOPRIL ANHYDROUS],Not Active,Not Active,Not Active,Not Active,Not Active,Not Active,Not Active,Not Active,Not Active,Not Active,Not Active,Not Active,Not Active,Not Active,Not Active,Not Active,Not Active,Not Active,Not Active,–
COS(C)(=O)=O [METHANESULFONIC ACID METHYL ESTER],Not Active,Not Active,Not Active,Not Active,Not Active,Not Active,Not Active,Not Active,Not Active,Not Active,Not Active,Not Active,Not Active,Not Active,Not Active,Not Active,Not Active,Not Active,Not Active,–
